# Measurements from patent US20100029542A1, “PROTEIN STERILISATION BY RADIATION AND ADDITION OF A STABILISING COMPOSITION” (priority 2006, published 2010).
# Read-outs that look alike come from different tables or passages of the source. Where a SMILES comes first, the peptide text is derived from it.
# Columns and labels:
# [1] = cited from earlier work; for Rate constant k: Table 1, singlet oxygen scavengers, measured in specified solvents
# glucose oxidase = target: T1, glucose oxidase (Aspergillus niger, UniProt P13006); experiment: Activity recovery of glucose oxidase in dry formulations following gamma irradiation; format: physicochemical; conditions: glucose oxidase 350 μg mL^−1 prior to drying, dry, 25-40 kGy
# T1 construct: purchased Biocatalysts G575P
# Procedure: (§1) In each example, an aqueous solution of a protein was prepared with selected additives in an Eppendorf tube or in a glass vial. Water was removed from the formulation by drying under a stream of nitrogen at 30° C. and subsequent incubation at atmospheric pressure in the presence of a dessicant. The Eppendorf tubes or the glass vials were sealed and delivered to an industrial sterilisation service for gamma irradiation, with a dose range typical for sterile medical products. The gamma-irradiated samples were reconstituted on their return and analysed for protein activity or structural integrity. The results were compared with those achieved using control (i.e. non-irradiated) samples.
# (§2) The dry samples (approx. 20 μg in an Eppendorf tube) were gamma-irradiated by an industry-standard commercial sterilising service provided by Isotron PLC (Swindon, Wilts, UK), using a Cobalt 60 gamma source at ambient temperature. The radiation dose was in the range of 25-40 kGy.
# The original solutions (i.e. solutions prior to drying) contained 350 μg mL^−1 of glucose oxidase and typically the total of 100 mM of protective compounds (i.e. 100 mM in case of a single compound, 50 mM+50 mM in case of two compounds, 33.3 mM+33.3 mM+33.3 mM in the case of three compounds etc.). The solutions were dried and gamma irradiated. Following the gamma irradiation, the samples, both pre- and post-gamma irradiated, were assayed for glucose oxidase activity. This was performed according to the following procedure:
# Water was added to the sample to achieve 350 μg mL^−1 of glucose oxidase. 50 μL of the solution was added to 50 mL of deionised water. The following solutions were then added: • 10 mL of reagent mix (5 parts of 0.1 M sodium phosphate, pH 6+4 parts 2% w/w starch+1 part of 1 mg/mL lactoperoxidase enzyme); • 5 mL of 100 mM potassium iodide; and • 5 mL of 20% w/w glucose solution.
# These were mixed together quickly. Time=0 was counted from the addition of the glucose. After 5 min, 1 ml of 5 M aq. hydrochloric acid was added to stop the reaction. The absorbance was then read at 630 nm using a Unicam UV-visible spectrophotometer (Type: Helios gamma). If the colour intensity was too great to allow an accurate reading, the sample was diluted with a defined volume of deionised water to bring the colour back on scale. The results were expressed as percentage recovery, by reference to the absorbance measured in the pre-gamma irradiation samples.
# catalase = target: T2, catalase (Bos taurus, UniProt P00432); experiment: Activity recovery of catalase in dry formulations following gamma irradiation; format: physicochemical, bovine; conditions: for Enzyme activity remaining after gamma-irradiation: catalase 100 μg mL^−1 prior to drying, dry, 25-40 kGy
# T2 construct: Catalase (from bovine liver, Sigma C9322, 2380 U /mg solid); purchased Sigma C9322; host or cells: bovine liver
# T2 sequence (P00432 2-527 limits assumed): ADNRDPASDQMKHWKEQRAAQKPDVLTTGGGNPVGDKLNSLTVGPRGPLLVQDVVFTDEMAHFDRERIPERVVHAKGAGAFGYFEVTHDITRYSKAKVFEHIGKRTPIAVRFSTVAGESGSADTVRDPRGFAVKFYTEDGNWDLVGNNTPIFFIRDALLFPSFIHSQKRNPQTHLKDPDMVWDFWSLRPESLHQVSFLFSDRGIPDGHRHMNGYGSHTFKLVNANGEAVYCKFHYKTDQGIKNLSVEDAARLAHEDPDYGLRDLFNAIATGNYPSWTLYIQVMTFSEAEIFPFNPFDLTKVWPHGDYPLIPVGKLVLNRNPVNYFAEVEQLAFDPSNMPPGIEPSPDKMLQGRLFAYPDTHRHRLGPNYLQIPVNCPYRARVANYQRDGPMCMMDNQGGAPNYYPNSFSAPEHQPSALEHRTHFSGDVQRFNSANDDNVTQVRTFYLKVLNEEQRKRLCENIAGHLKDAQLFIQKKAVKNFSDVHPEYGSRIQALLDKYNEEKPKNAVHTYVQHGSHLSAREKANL
# Procedure: as §1, §2
# The original solutions (i.e. solutions prior to drying) contained 100 μg mL^−1 of catalase and typically the total of 100 mM of protective compounds (i.e. 100 mM in case of a single compound, 50 mM+50 mM in case of two compounds, 33.3 mM+33.3 mM+33.3 mM in the case of three compounds etc.). The solutions were dried and gamma irradiated. Following the gamma irradiation, the samples, both pre- and post-gamma irradiated, were assayed for […] activity. This was performed according to the following procedure:
# Water was added to the sample to achieve 100 μg mL^−1 of catalase. 100 μL of the solution was added to a mixture of 18 mL of PBS and 2 mL of hydrogen peroxide (30 mM in water) in a 125 mL polypropylene pot and mixed. The resulting mixture was incubated at room temperature precisely for 30 min. In the meantime, the following reagents were mixed in a plastic cuvette for spectrophotometric measurements: • 2.73 mL of citrate/phosphate buffer (0.1 M, pH 5.0) • 100 μL of tetramethylbenzidine (TMB) (3 mg/mL, dissolved in dimethyl sulphoxide (DMSO)) • 100 μL of lactoperoxidase
# Following the 30 min incubation period, 70 μL of the catalase containing mixture was added to the cuvette and absorbance was read in approximately 30 s. The results were expressed as percentage recovery, by reference to the absorbance measured in the fresh samples (i.e. prior to incubation at increased temperature).
# human growth hormone = target: T3, human growth hormone (Homo sapiens, UniProt P01241); experiment: Recovery of structural integrity of human growth hormone in dry formulations following gamma irradiation (HPLC); format: physicochemical; conditions: structural integrity by HPLC, human growth hormone 2.5 mg mL^−1 prior to drying, 25-40 kGy
# T3 construct: purchased National Institute of Biological Standards and Control; further samples on prescription from a GP surgery
# Procedure: as §1, §2
# Mobile phase was prepared by mixing 71 parts (by volume) of a solution of TRIS (0.05 M, in water adjusted with hydrochloric acid to a pH of 7.5) and 29 parts (by volume) of n-propylalcohol. The mobile phase was filtered prior to its use. The liquid chromatograph (Agilent 1100 series) was equipped with a 214 nm detector and a 4.6×250 mm column (Phenomenex 00G-4167-E0) packed with butylsilyl silica gel with a granulometry of 5 μm and a porosity of 30 nm, maintained at 45° C. The flow rate was maintained at 0.5 mL min^−1. 15 μL of aqueous samples of human growth hormone (typically 1-2.5 mg mL^−1) were injected. Results were expressed as % of peak area corresponding to the gamma irradiated sample with respect to that measured in non-irradiated sample.
# Sandostatin = experiment: Recovery of structural integrity of Sandostatin in dry formulations following gamma irradiation (HPLC); format: physicochemical; conditions: structural integrity by HPLC, excipient:Sandostatin weight ratio 10:1, 25-40 kGy
# Procedure: as §1, §2
# Mobile phase A was 0.1 M triethylamine adjusted to pH 2.3 with phosphoric acid. Mobile phase B was acetonitrile. The mobile phases were filtered prior to their use. The following linear gradient was used: time 0: 90% A+10% B; time 35 min: 60% A+40% B. The liquid chromatograph (Agilent 1100 series) was equipped with a 214 nm detector, guard column and a 4.6×150 mm C18 column with a granulometry of 5 μm and a porosity of 30 nm, maintained at ambient temperature. The flow rate was maintained at 1.0 mL min^−1. Injection volume was 50 μL (typically sandostatin at 200 μg mL^−1). Results were expressed as % of main peak area (i.e. area of the peak corresponding to intact sandostatin measured in the gamma irradiated sample with respect to that measured in non-irradiated sample of identical composition). A chromatogram of a standard solution of sandostatin was recorded after every 12 samples to ensure that no drift in the position of the major peak had occurred. The control measurements ruled out any ambiguity in interpreting the chromatograms.
# [2] = Table 5, singlet oxygen scavengers, ambient temperature
# [3] = Table 6, singlet oxygen scavengers, ambient temperature
# [4] = Table 10, superoxide scavengers
# [5] = Table 11, superoxide scavengers
# [6] = Table 12, superoxide scavengers
# [7] = Table 3, prior-art antioxidants, ambient temperature, vs non-irradiated
# [8] = Table 4, prior-art antioxidants, ambient temperature
# T1 sequence (P13006 17-605): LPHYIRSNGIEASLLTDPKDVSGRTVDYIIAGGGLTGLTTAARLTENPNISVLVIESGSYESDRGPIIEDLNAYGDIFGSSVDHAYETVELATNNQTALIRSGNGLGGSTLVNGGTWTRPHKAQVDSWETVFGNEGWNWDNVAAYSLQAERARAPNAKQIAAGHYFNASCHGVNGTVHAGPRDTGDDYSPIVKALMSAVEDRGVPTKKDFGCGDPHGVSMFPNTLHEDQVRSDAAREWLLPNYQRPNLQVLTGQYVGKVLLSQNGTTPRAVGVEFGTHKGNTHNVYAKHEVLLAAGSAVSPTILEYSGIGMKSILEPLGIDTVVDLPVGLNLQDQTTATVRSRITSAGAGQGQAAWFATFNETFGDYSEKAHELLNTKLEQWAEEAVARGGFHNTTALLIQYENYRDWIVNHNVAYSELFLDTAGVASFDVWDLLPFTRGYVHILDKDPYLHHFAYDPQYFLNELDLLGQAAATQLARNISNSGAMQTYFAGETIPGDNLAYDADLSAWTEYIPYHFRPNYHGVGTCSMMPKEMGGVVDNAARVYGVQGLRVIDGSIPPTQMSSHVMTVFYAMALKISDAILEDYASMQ
# T3 sequence (P01241 27-217): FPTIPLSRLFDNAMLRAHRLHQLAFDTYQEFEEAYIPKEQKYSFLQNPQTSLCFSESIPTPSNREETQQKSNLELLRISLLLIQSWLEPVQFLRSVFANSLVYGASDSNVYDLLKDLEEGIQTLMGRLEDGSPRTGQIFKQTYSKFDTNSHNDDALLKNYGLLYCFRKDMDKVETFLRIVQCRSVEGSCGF
compound,measurement,setting,value
NC(=O)C1=CN([C@@H]2O[C@H](COP(=O)(O)OP(=O)(O)OC[C@H]3O[C@@H](n4cnc5c(N)ncnc54)[C@H](O)[C@@H]3O)[C@@H](O)[C@H]2O)C=CC1 [NADH],Rate constant k,[1],k = 2 × 10^7 L mol^−1 s^−1
N[C@@H](CS)C(=O)O [Cysteine anion],Rate constant k,[1],k = 1.5 × 10^8 L mol^−1 s^−1
[Cu+2] [Copper(II) ion],Rate constant k,[1],k = 6.4 × 10^7 L mol^−1 s^−1
[N-]=[N+]=[N-] [Azide anion],Rate constant k,[1],k = 4.5 × 10^8 L mol^−1 s^−1
C[C@H](N)C(=O)O [Alanine],Enzyme activity remaining after gamma-irradiation,glucose oxidase; [2],15.3%
same,Enzyme activity remaining after gamma-irradiation,catalase; [3],8.8%
same,Rate constant k,[1],k = 3.0 × 10^7 L mol^−1 s^−1
same,Rate of reaction with singlet oxygen,[1]; Table 5,3e+07 M⁻¹ s⁻¹
same,Rate of reaction with singlet oxygen,[1]; Table 6,3e+07 M⁻¹ s⁻¹
O=C(O)CC(O)(CC(=O)O)C(=O)O [Citrate],Enzyme activity remaining after gamma-irradiation,"glucose oxidase; Table 9, superoxide scavengers",32.0%
same,Enzyme activity remaining after gamma-irradiation,catalase; [4],39.5%
same,Structural integrity remaining after gamma-irradiation (HPLC),human growth hormone; [5],45.6%
same,Enzyme activity remaining after gamma-irradiation,Sandostatin; [6],91.8%
Cc1ncc(C[n+]2csc(CCO)c2C)c(N)n1 [Thiamine],Enzyme activity remaining after gamma-irradiation,glucose oxidase; [2],43.1%
same,Enzyme activity remaining after gamma-irradiation,catalase; [3],26.1%
same,Structural integrity remaining after gamma-irradiation (HPLC),"human growth hormone; Table 7, singlet oxygen scavengers",48.8%
same,Enzyme activity remaining after gamma-irradiation,"Sandostatin; Table 8, singlet oxygen scavengers",87.7%
same,Rate constant k,[1],k = 6 × 10^7 L mol^−1 s^−1
same,Rate of reaction with singlet oxygen,[1]; Table 5,6e+07 M⁻¹ s⁻¹
same,Rate of reaction with singlet oxygen,[1]; Table 6,6e+07 M⁻¹ s⁻¹
same,Rate of reaction with singlet oxygen,[1]; Table 7,6e+07 M⁻¹ s⁻¹
same,Rate of reaction with singlet oxygen,[1]; Table 8,6e+07 M⁻¹ s⁻¹
Cc1c(C)c2c(c(C)c1O)CCC(C)(C(=O)O)O2 (stereo not drawn) [Trolox],Enzyme activity remaining after gamma-irradiation,glucose oxidase; [7],45.9%
same,Structural integrity remaining after gamma-irradiation (HPLC),human growth hormone; [8],49.6%
OC[C@@H](O)[C@@H](O)[C@H](O)[C@H](O)CO [Mannitol],Enzyme activity remaining after gamma-irradiation,"glucose oxidase; Table 9, superoxide scavengers",17.2%
same,Enzyme activity remaining after gamma-irradiation,catalase; [4],36.3%
same,Structural integrity remaining after gamma-irradiation (HPLC),human growth hormone; [5],28.3%
same,Enzyme activity remaining after gamma-irradiation,Sandostatin; [6],72.6%
Silymarine,Enzyme activity remaining after gamma-irradiation,glucose oxidase; [7],46.3%
same,Structural integrity remaining after gamma-irradiation (HPLC),human growth hormone; [8],63.0%
Oc1nc(O)c2nc(O)[nH]c2n1 [Urate],Enzyme activity remaining after gamma-irradiation,glucose oxidase; [7],32.6%
same,Structural integrity remaining after gamma-irradiation (HPLC),human growth hormone; [8],61.5%
O=S(=O)(O)c1cc(O)c(O)c(S(=O)(=O)O)c1 [Tiron],Enzyme activity remaining after gamma-irradiation,"glucose oxidase; Table 9, superoxide scavengers",27.5%
same,Enzyme activity remaining after gamma-irradiation,catalase; [4],17.9%
same,Structural integrity remaining after gamma-irradiation (HPLC),human growth hormone; [5],55.7%
same,Enzyme activity remaining after gamma-irradiation,Sandostatin; [6],89.7%
O=C(O)CC(O)C(=O)O (stereo not drawn) [Malate],Enzyme activity remaining after gamma-irradiation,"glucose oxidase; Table 9, superoxide scavengers",40.7%
same,Enzyme activity remaining after gamma-irradiation,catalase; [4],40.9%
same,Structural integrity remaining after gamma-irradiation (HPLC),human growth hormone; [5],52.1%
same,Enzyme activity remaining after gamma-irradiation,Sandostatin; [6],87.7%
NCC(=O)NCC(=O)O [Glycylglycine] (H-Gly-Gly-OH),Enzyme activity remaining after gamma-irradiation,glucose oxidase; [7],20.1%
same,Structural integrity remaining after gamma-irradiation (HPLC),human growth hormone; [8],47.2%
[Ni+2] [Nickel (II) ion],Rate constant k,[1],k = 3.3 × 10^7 L mol^−1 s^−1
CC12CCC(CC1)C(C)(C)O2 [Eucaliptol],Enzyme activity remaining after gamma-irradiation,"glucose oxidase; Table 13, ozone scavengers",17.5%
same,Compatibility of the compound with catalase,catalase; as excipient in the formulation,inhibit catalase
"CC(=O)CCCCn1c(=O)c2c(ncn2C)n(C)c1=O [Pentoxyfylline, reference compound]",Enzyme activity remaining after gamma-irradiation,"glucose oxidase; Table 13, ozone scavengers",36.2%
same,Enzyme activity remaining after gamma-irradiation,"catalase; Table 14, ozone scavenger",77.0%
same,Structural integrity remaining after gamma-irradiation (HPLC),"human growth hormone; Table 15, ozone scavenger",46.0%
